Source: patent US20040029829A1, “External skin preparations and process for producing the same” (priority 2000, published 2004)

Tested on: human epidermic cells
Assay: Cell activation effect by cell culture (metabolic activity, WST-1)
Type: cell-based
Conditions: 0.5% fermented product 1 (SB), alone or combined
Experimental: Immortalized cells obtained by transforming human epidermic cells (manufactured by Kurabo Industries, Ltd.) using SV40 virus T antigen according to the method of Yasumoto et al. (Cultured Cell Experiment For Molecular Biology Research by S. Yasumoto, edited by T. Kuroki et al., Yodosha Co., Ltd., 1995, pp 191-200) were used as test cells. The cells were disseminated in a 96 well plate (4×10^3 cells/0.1 ml/well) and cultured in a serum-free liquid medium for proliferation (HuMedia-KG 2: Kurabo Industries, Ltd.) under the conditions of 37° C. and a CO2 concentration of 5%. […] The cells were also cultured in media to which the above components were individually added as Comparative Examples, and in a medium to which none of these components were added as a control. On the third day of culturing, a reducing-type coloring reagent (WST-1, manufactured by Dojindo Co.) was added in an amount of 10 μl/well, followed by incubation for 2 hours under the conditions of 37° C. and a CO2 concentration of 5%. Then, absorption at 450-660 nm was measured. Metabolic activity of the cells was calculated from the resulting absorbance. The cell activation effect was evaluated from the rate of increase in the metabolic activity in comparison with the control sample. […]

Row | SMILES | metabolic activity of human epidermic cells (5×10^−10 M all-trans-retinoic acid (RA), FIG. 2) | metabolic activity of human epidermic cells (5×10^−9 M all-trans-retinol (ROH), FIG. 1)
1 | CC1=C(/C=C/C(C)=C/C=C/C(C)=C/C(=O)O)C(C)(C)CCC1 [all-trans-retinoic acid] | cannot exhibit metabolic activity | –
2 | CC1=C(/C=C/C(C)=C/C=C/C(C)=C/CO)C(C)(C)CCC1 [all-trans-retinol] | – | cannot exhibit metabolic activity
